What was measured:
Format in all cases: cell-based
Details in all cases: 24 h
A2780 = assay: MTT cytotoxicity test, A2780
Text: (§1) In this test, […] present in the cells converts the soluble tetrazolium salt (3-4,5-dimethylthiazol-2-yl)-2,5-diphenyltetrazolium bromide) into a reduced form. The reaction yields water-insoluble purple crystalline formazan. The number of crystals formed depends on the enzyme activity so that it is directly proportional to the number of viable cells in the sample. Spectrophotometric measurement requires the use of an organic solvent to dissolve the crystals obtained (isopropanol). The change in colour intensity is measured by spectrophotometry at 570 nm wavelength. The test was performed for a number of dilutions (9) of nanoparticle solutions containing the tested anthracycline. The baseline concentration of nanoparticles for MTT tests was 2.5 mg of nanoparticles/ml. […] The study was also performed for drug-free nanoparticles (the carrier itself was obtained similarly to the nanoparticles with the drug). Cells not exposed to toxic substances were used as a control for toxicity studies.
(§2) After reaching 85-90% confluence, the cells were trypsinised using a 0.25% trypsin solution. The cells were then centrifuged (1200 rpm, 5 min.) and suspended in a culture medium suitable for a particular cell line. […] The cells were plated at a concentration of 1000 cells/100 μl of medium per culture well (96-well plates). The prepared plates were incubated (37° C./5% CO2/22 h to 26 h). Subsequently, the culture medium was replaced with a fresh one (100 μl) containing the appropriate concentration of the tested nanoparticles and set aside for 24 h (37° C./5% CO2). After the lapse of the test time, the medium was removed and replaced with 50 μl of an MTT reagent solution at a concentration of 1 mg/ml. The plate was incubated for 2 hours (37° C./5% CO2). Subsequently, the MTT solution was removed, and 100 μl of isopropanol was added. […] The mean value of absorbance read OD570 of the cells not exposed to a toxic agent (control) should be above 0.7 [see literature item 206].
(§3) A decrease in the number of viable cells causes a decrease in metabolic activity in the sample. This reduction directly correlates with the amount of blue and purple formazan formed, monitored basing on the optical density at 570 nm. The following equation (C.1) is used to calculate viability reduction compared to control:
(§4) where: • OD570e is the mean value of the measured absorbance of the test samples; • OD570b is the mean value of the measured absorbance of the control.
(§5) The results obtained were statistically analysed using the Dixon Q test.

A549 = assay: MTT cytotoxicity test, A549
Text: as §1, §2, §3, §4, §5

ACHN = assay: MTT cytotoxicity test, ACHN
Text: as §1, §2, §3, §4, §5

AU565 = assay: MTT cytotoxicity test, AU565
Text: as §1, §2, §3, §4, §5

COLO 205 = assay: MTT cytotoxicity test, COLO 205
Text: as §1, §2, §3, §4, §5

MCF-7 = assay: MTT cytotoxicity test, MCF-7
Text: as §1, §2, §3, §4, §5

OVCAR-3 = assay: MTT cytotoxicity test, OVCAR-3
Text: as §1, §2, §3, §4, §5

PANC-1 = assay: MTT cytotoxicity test, PANC-1
Text: as §1, §2, §3, §4, §5

**Q.** How did the Average viability (A2780; A2780, 1.25E+04 ng/ml NPs (pure drug equimolar)) turn out when `COc1cccc2c1C(=O)c1c(O)c3c(c(O)c1C2=O)C[C@@](O)(C(C)=O)C[C@@H]3O[C@H]1C[C@H](N)[C@H](O)[C@H](C)O1` [Dau, daunorubicin] was run?
**A.** 0.540%

**Q.** What about the Average viability (A2780; A2780, 1.25E+05 ng/ml NPs (pure drug equimolar)) of the same compound?
**A.** 18.312%

**Q.** What about the Average viability (A2780; A2780, 1.25E+06 ng/ml NPs (pure drug equimolar)) of the same compound?
**A.** 60.422%

**Q.** What about the Average viability (A2780; A2780, 2.50E+04 ng/ml NPs (pure drug equimolar)) of the same compound?
**A.** 3.689%

**Q.** What about the Average viability (A2780; A2780, 2.50E+05 ng/ml NPs (pure drug equimolar)) of the same compound?
**A.** 35.542%

**Q.** And the Average viability (A2780; A2780, 2.50E+06 ng/ml NPs (pure drug equimolar))?
**A.** 54.259%

**Q.** And the Average viability (A2780; A2780, 5.00E+03 ng/ml NPs (pure drug equimolar))?
**A.** 0.295%

**Q.** What about the Average viability (A2780; A2780, 5.00E+04 ng/ml NPs (pure drug equimolar)) of the same compound?
**A.** 11.600%

**Q.** And the Average viability (A2780; A2780, 5.00E+05 ng/ml NPs (pure drug equimolar))?
**A.** 60.621%

**Q.** What about the Average viability (A549; A549, 1.25E+04 ng/ml NPs (pure drug equimolar)) of the same compound?
**A.** 57.00%

**Q.** And the Average viability (A549; A549, 1.25E+05 ng/ml NPs (pure drug equimolar))?
**A.** 49.55%

**Q.** What about the Average viability (A549; A549, 1.25E+06 ng/ml NPs (pure drug equimolar)) of the same compound?
**A.** 0.53%

**Q.** What about the Average viability (A549; A549, 2.50E+04 ng/ml NPs (pure drug equimolar)) of the same compound?
**A.** 55.31%

**Q.** What about the Average viability (A549; A549, 2.50E+05 ng/ml NPs (pure drug equimolar)) of the same compound?
**A.** 52.82%

**Q.** And the Average viability (A549; A549, 2.50E+06 ng/ml NPs (pure drug equimolar))?
**A.** 65.72%

**Q.** What about the Average viability (A549; A549, 5.00E+03 ng/ml NPs (pure drug equimolar)) of the same compound?
**A.** 65.72%

**Q.** What about the Average viability (A549; A549, 5.00E+04 ng/ml NPs (pure drug equimolar)) of the same compound?
**A.** 50.80%

**Q.** And the Average viability (A549; A549, 5.00E+05 ng/ml NPs (pure drug equimolar))?
**A.** 0.60%

**Q.** What about the Average viability (ACHN; 1.25E+04 ng/ml NPs (pure drug equimolar)) of the same compound?
**A.** 43.86%

**Q.** What about the Average viability (ACHN; 1.25E+05 ng/ml NPs (pure drug equimolar)) of the same compound?
**A.** 2.75%

**Q.** What about the Average viability (ACHN; 1.25E+06 ng/ml NPs (pure drug equimolar)) of the same compound?
**A.** 5.35%

**Q.** What about the Average viability (ACHN; 2.50E+04 ng/ml NPs (pure drug equimolar)) of the same compound?
**A.** 1.60%

**Q.** And the Average viability (ACHN; 2.50E+05 ng/ml NPs (pure drug equimolar))?
**A.** 2.24%

**Q.** And the Average viability (ACHN; 5.00E+04 ng/ml NPs (pure drug equimolar))?
**A.** 2.88%

**Q.** What about the Average viability (ACHN; 5.00E+05 ng/ml NPs (pure drug equimolar)) of the same compound?
**A.** 3.02%

**Q.** And the Average viability (AU565; AU565, 1.25E+04 ng/ml NPs (pure drug equimolar))?
**A.** 58.57%

**Q.** And the Average viability (AU565; AU565, 1.25E+05 ng/ml NPs (pure drug equimolar))?
**A.** 25.83%

**Q.** And the Average viability (AU565; AU565, 1.25E+06 ng/ml NPs (pure drug equimolar))?
**A.** 1.544%

**Q.** And the Average viability (AU565; AU565, 2.50E+04 ng/ml NPs (pure drug equimolar))?
**A.** 33.22%

**Q.** What about the Average viability (AU565; AU565, 2.50E+05 ng/ml NPs (pure drug equimolar)) of the same compound?
**A.** 12.14%

**Q.** And the Average viability (AU565; AU565, 2.50E+06 ng/ml NPs (pure drug equimolar))?
**A.** 1.053%

**Q.** What about the Average viability (AU565; AU565, 5.00E+03 ng/ml NPs (pure drug equimolar)) of the same compound?
**A.** 75.96%

**Q.** And the Average viability (AU565; AU565, 5.00E+04 ng/ml NPs (pure drug equimolar))?
**A.** 28.26%

**Q.** And the Average viability (AU565; AU565, 5.00E+05 ng/ml NPs (pure drug equimolar))?
**A.** 3.245%

**Q.** And the Average viability (COLO 205; Colo205, 1.25E+04 ng/ml NPs (pure drug equimolar))?
**A.** 34.20%

**Q.** And the Average viability (COLO 205; Colo205, 1.25E+05 ng/ml NPs (pure drug equimolar))?
**A.** 3.75%

**Q.** And the Average viability (COLO 205; Colo205, 1.25E+06 ng/ml NPs (pure drug equimolar))?
**A.** 5.07%

**Q.** What about the Average viability (COLO 205; Colo205, 2.50E+04 ng/ml NPs (pure drug equimolar)) of the same compound?
**A.** 19.17%

**Q.** And the Average viability (COLO 205; Colo205, 2.50E+05 ng/ml NPs (pure drug equimolar))?
**A.** 3.47%

**Q.** And the Average viability (COLO 205; Colo205, 2.50E+06 ng/ml NPs (pure drug equimolar))?
**A.** 30.89%

**Q.** And the Average viability (COLO 205; Colo205, 5.00E+03 ng/ml NPs (pure drug equimolar))?
**A.** 30.89%

**Q.** And the Average viability (COLO 205; Colo205, 5.00E+04 ng/ml NPs (pure drug equimolar))?
**A.** 4.46%

**Q.** What about the Average viability (COLO 205; Colo205, 5.00E+05 ng/ml NPs (pure drug equimolar)) of the same compound?
**A.** 2.93%

**Q.** And the Average viability (MCF-7; MCF-7, 1.25E+04 ng/ml NPs (pure drug equimolar))?
**A.** 1.153%

**Q.** What about the Average viability (MCF-7; MCF-7, 1.25E+05 ng/ml NPs (pure drug equimolar)) of the same compound?
**A.** 17.162%

**Q.** And the Average viability (MCF-7; MCF-7, 1.25E+06 ng/ml NPs (pure drug equimolar))?
**A.** 40.867%

**Q.** And the Average viability (MCF-7; MCF-7, 2.50E+04 ng/ml NPs (pure drug equimolar))?
**A.** 1.072%

**Q.** What about the Average viability (MCF-7; MCF-7, 2.50E+05 ng/ml NPs (pure drug equimolar)) of the same compound?
**A.** 23.086%

**Q.** And the Average viability (MCF-7; MCF-7, 2.50E+06 ng/ml NPs (pure drug equimolar))?
**A.** 69.450%

**Q.** What about the Average viability (MCF-7; MCF-7, 5.00E+03 ng/ml NPs (pure drug equimolar)) of the same compound?
**A.** 1.311%

**Q.** What about the Average viability (MCF-7; MCF-7, 5.00E+04 ng/ml NPs (pure drug equimolar)) of the same compound?
**A.** 4.421%

**Q.** And the Average viability (MCF-7; MCF-7, 5.00E+05 ng/ml NPs (pure drug equimolar))?
**A.** 25.325%

**Q.** And the Average viability (OVCAR-3; OVCAR3, 1.25E+04 ng/ml NPs (pure drug equimolar))?
**A.** 3.616%

**Q.** And the Average viability (OVCAR-3; OVCAR3, 1.25E+05 ng/ml NPs (pure drug equimolar))?
**A.** 59.635%

**Q.** What about the Average viability (OVCAR-3; OVCAR3, 1.25E+06 ng/ml NPs (pure drug equimolar)) of the same compound?
**A.** 94.253%

**Q.** What about the Average viability (OVCAR-3; OVCAR3, 2.50E+04 ng/ml NPs (pure drug equimolar)) of the same compound?
**A.** 43.386%

**Q.** What about the Average viability (OVCAR-3; OVCAR3, 2.50E+05 ng/ml NPs (pure drug equimolar)) of the same compound?
**A.** 71.147%

**Q.** What about the Average viability (OVCAR-3; OVCAR3, 2.50E+06 ng/ml NPs (pure drug equimolar)) of the same compound?
**A.** 99.822%

**Q.** What about the Average viability (OVCAR-3; OVCAR3, 5.00E+03 ng/ml NPs (pure drug equimolar)) of the same compound?
**A.** 1.330%

**Q.** And the Average viability (OVCAR-3; OVCAR3, 5.00E+04 ng/ml NPs (pure drug equimolar))?
**A.** 52.550%

**Q.** And the Average viability (OVCAR-3; OVCAR3, 5.00E+05 ng/ml NPs (pure drug equimolar))?
**A.** 120.518%

**Q.** What about the Average viability (PANC-1; PANC1, 1.25E+05 ng/ml NPs (pure drug equimolar)) of the same compound?
**A.** 48.79%

**Q.** What about the Average viability (PANC-1; PANC1, 1.25E+06 ng/ml NPs (pure drug equimolar)) of the same compound?
**A.** 1.02%

**Q.** And the Average viability (PANC-1; PANC1, 2.50E+04 ng/ml NPs (pure drug equimolar))?
**A.** 61.24%

**Q.** And the Average viability (PANC-1; PANC1, 2.50E+05 ng/ml NPs (pure drug equimolar))?
**A.** 33.21%

**Q.** And the Average viability (PANC-1; PANC1, 2.50E+06 ng/ml NPs (pure drug equimolar))?
**A.** 95.12%

**Q.** What about the Average viability (PANC-1; PANC1, 5.00E+03 ng/ml NPs (pure drug equimolar)) of the same compound?
**A.** 95.12%

**Q.** And the Average viability (PANC-1; PANC1, 5.00E+04 ng/ml NPs (pure drug equimolar))?
**A.** 56.67%

**Q.** What about the Average viability (PANC-1; PANC1, 5.00E+05 ng/ml NPs (pure drug equimolar)) of the same compound?
**A.** 0.54%
